Data: the supplement of paper PMC10307832

How the values were obtained:
Assay in all cases: relative viability (nuclei count vs DMSO), 5 days (fraction); higher = more cells survive
[1] = compound: Cc1nc(NC(=O)N2CCC[C@H]2C(N)=O)sc1-c1ccnc(C(C)(C)C(F)(F)F)c1 [Alpelisib] + CS(=O)(=O)N1CCN(Cc2cc3nc(-c4cccc5[nH]ncc45)nc(N4CCOCC4)c3s2)CC1 [Pictilisib] (partner 1 µM)
How it was run: (§1)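 Cells from lung cancer lines were seeded into 1536-well plates and, one day later, dosed by pin tool. Treatments were either a single drug or a fixed dose of an anchor drug with five library-drug doses (not always all listed) in √10 steps. After 5 days, nuclei were stained in a one-step fixation (final 0.05% Triton X-100, 1% formaldehyde, 1 ug/ml Hoechst) and counted on 4× images, and relative viability is the treated-to-vehicle nuclei ratio, as the median of duplicate plates.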

[2] = compound: Cc1nc(NC(=O)N2CCC[C@H]2C(N)=O)sc1-c1ccnc(C(C)(C)C(F)(F)F)c1 [Alpelisib] + C[C@@H](Oc1cc(-c2cnn(C3CCNCC3)c2)cnc1N)c1c(Cl)ccc(F)c1Cl [Crizotinib] (partner 1 µM)
How it was run: as §1

[3] = compound: Cc1nc(NC(=O)N2CCC[C@H]2C(N)=O)sc1-c1ccnc(C(C)(C)C(F)(F)F)c1 [Alpelisib] + Nc1nc2[nH]cc(CCc3ccc(C(=O)N[C@@H](CCC(=O)O)C(=O)O)cc3)c2c(=O)[nH]1 [Pemetrexed] (partner 0.2 µM)
How it was run: as §1

[4] = compound: Cc1nc(NC(=O)N2CCC[C@H]2C(N)=O)sc1-c1ccnc(C(C)(C)C(F)(F)F)c1 [Alpelisib] + O=C(c1cc(Cc2n[nH]c(=O)c3ccccc23)ccc1F)N1CCN(C(=O)C2CC2)CC1 [Olaparib] (partner 8 µM)
How it was run: as §1

Cell Line	relative viability ([1]; first compound 0.04 µM)	relative viability ([1]; first compound 0.1265 µM)	relative viability ([1]; first compound 0.4 µM)	relative viability ([1]; first compound 1.265 µM)	relative viability ([1]; first compound 4 µM)	relative viability ([2]; first compound 0.04 µM)	relative viability ([2]; first compound 0.1265 µM)	relative viability ([2]; first compound 0.4 µM)	relative viability ([2]; first compound 1.265 µM)	relative viability ([2]; first compound 4 µM)	relative viability ([3]; first compound 0.04 µM)	relative viability ([3]; first compound 0.1265 µM)	relative viability ([3]; first compound 0.4 µM)	relative viability ([3]; first compound 1.265 µM)	relative viability ([3]; first compound 4 µM)	relative viability ([4]; first compound 0.04 µM)	relative viability ([4]; first compound 0.1265 µM)	relative viability ([4]; first compound 0.4 µM)	relative viability ([4]; first compound 1.265 µM)	relative viability ([4]; first compound 4 µM)
NCI-H1666	0.508	0.459	0.536	0.479	0.344	0.914	0.87	0.932	0.765	0.747	0.882	0.893	0.979	0.833	0.514	0.771	0.774	0.816	0.704	0.688
NCI-H2009	0.805	0.773	1.02	0.767	0.52	1.04	1.02	1.11	0.953	0.831	0.987	1.03	1.08	1.01	0.968	0.756	0.659	0.674	0.647	0.599
NCI-H2228	0.473	0.326	0.547	0.445	0.221	0.514	0.402	0.403	0.303	0.304	0.35	0.228	0.39	0.272	0.319	0.889	0.587	0.621	0.341	0.326
SK-MES-1	0.361	0.39	0.467	0.333	0.316	1.03	0.875	0.968	0.83	0.67	0.954	0.955	1.07	0.868	0.689	0.616	0.556	0.786	0.622	0.544
LCLC-97TM1	0.178	0.175	0.179	0.195	0.21	0.343	0.295	0.427	0.208	0.157	0.177	0.17	0.183	0.174	0.127	0.379	0.396	0.304	0.197	0.116
NCI-H596	0.404	0.413	0.362	0.399	0.358	1.06	1.01	0.841	0.616	0.406	0.44	0.446	0.503	0.41	0.42	0.705	0.701	0.778	0.491	0.438
BEN	0.562	0.523	0.705	0.579	0.578	0.956	0.95	1.04	0.884	0.866	0.723	0.598	0.844	0.794	0.85	1.18	1.18	1.22	1.02	0.879
LU99A	0.293	0.278	0.374	0.296	0.251	0.544	0.471	0.509	0.385	0.313	0.187	0.188	0.193	0.154	0.159	0.245	0.282	0.268	0.287	0.232
RERF-LC-KJ	0.557	0.583	0.559	0.268	0.46	0.76	0.77	0.83	0.787	0.741	0.504	0.477	0.456	0.406	0.464	0.878	0.894	0.84	0.655	0.74
NCI-H1944	0.331	0.386	0.349	0.344	0.336	1.01	1.24	1.14	0.725	0.523	0.596	0.695	0.677	0.5	0.502	0.41	0.431	0.427	0.341	0.337
HARA	0.3	0.488	0.459	0.326	0.244	1.04	1.03	1.15	0.845	0.622	0.254	0.249	0.26	0.23	0.274	0.696	0.64	0.742	0.453	0.452
A-427	0.694	0.641	0.741	0.675	0.718	0.775	0.835	1.11	0.773	0.653	0.89	0.87	0.988	0.885	0.845	0.721	0.724	0.762	0.609	0.613
NCI-H2023	0.203	0.26	0.253	0.207	0.19	0.53	0.565	0.476	0.389	0.257	0.214	0.221	0.219	0.181	0.185	0.436	0.432	0.479	0.383	0.263
NCI-H2347	0.757	0.776	0.571	0.648	0.554	0.674	0.897	0.859	0.603	0.61	0.459	0.418	0.442	0.425	0.405	0.632	0.61	0.89	0.481	0.515
NCI-H1975	0.28	0.297	0.299	0.273	0.248	0.877	1.01	0.968	0.753	0.68	0.298	0.293	0.294	0.285	0.279	0.689	0.859	0.838	0.563	0.625
HCC-15	0.721	0.673	0.822	0.716	0.63	0.814	0.798	0.901	0.668	0.651	0.228	0.218	0.211	0.21	0.211	0.685	0.765	0.738	0.616	0.509
